Data set [1] concerns the target T1, dSARM1^ARM (Drosophila SARM1 ARM domain) (Drosophila melanogaster, UniProt Q6IDD9).
T1 sequence (Q6IDD9 307-678): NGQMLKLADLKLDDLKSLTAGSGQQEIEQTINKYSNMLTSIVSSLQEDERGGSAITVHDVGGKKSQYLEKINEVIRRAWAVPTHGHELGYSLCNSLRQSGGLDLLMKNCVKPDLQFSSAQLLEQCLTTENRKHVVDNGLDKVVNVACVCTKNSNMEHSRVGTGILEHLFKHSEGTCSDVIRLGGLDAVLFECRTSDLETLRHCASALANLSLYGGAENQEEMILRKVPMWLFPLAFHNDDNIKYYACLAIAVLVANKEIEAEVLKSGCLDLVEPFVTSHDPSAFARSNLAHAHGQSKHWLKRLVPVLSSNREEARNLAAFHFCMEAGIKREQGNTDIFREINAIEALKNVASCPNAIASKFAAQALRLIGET
The experiment in a line: ITC. Format: binding.

Data set [2] addresses dSARM1^ARM (Drosophila SARM1 ARM domain) (Drosophila melanogaster, UniProt Q6IDD9, R437A). The experiment in a line: ITC. The data set is classed as binding.
Data set [3] deals with the molecule itself. The experiment in a line: cryo-EM structure.

This is an account of results in publication PMC8174188 (Neuron, 2021).

By Kd is commonly meant the equilibrium constant for the complex coming apart. A higher Kd goes with weaker binding. The term stoichiometry N denotes the number of molecules, sites or subunits per partner or assembly.

Sequence of dSARM1^ARM (Drosophila SARM1 ARM domain) (Drosophila melanogaster, UniProt Q6IDD9, R437A) (Q6IDD9 307-678 R437A): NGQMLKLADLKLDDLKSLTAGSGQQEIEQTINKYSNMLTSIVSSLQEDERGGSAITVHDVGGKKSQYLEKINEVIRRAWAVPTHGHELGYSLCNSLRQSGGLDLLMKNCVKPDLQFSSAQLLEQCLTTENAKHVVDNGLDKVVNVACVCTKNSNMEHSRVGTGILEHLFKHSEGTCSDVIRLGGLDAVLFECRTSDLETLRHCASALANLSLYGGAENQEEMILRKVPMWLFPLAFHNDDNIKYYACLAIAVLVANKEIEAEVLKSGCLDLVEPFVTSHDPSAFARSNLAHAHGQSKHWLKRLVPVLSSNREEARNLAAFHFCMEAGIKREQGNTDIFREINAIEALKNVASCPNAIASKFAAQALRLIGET

For the molecule `NC(=O)c1ccc[n+]([C@@H]2O[C@H](COP(=O)([O-])OP(=O)(O)OC[C@H]3O[C@@H](n4cnc5c(N)ncnc54)[C@H](O)[C@@H]3O)[C@@H](O)[C@H]2O)c1` [NAD^+], the affinity in data set [1], expressed as Kd, was 54.2 ± 6.4 µM. The molecule `NC(=O)c1ccc[n+]([C@@H]2O[C@H](COP(=O)([O-])O)[C@@H](O)[C@H]2O)c1` [NMN] returned a Kd in data set [2] of 12.45 ± 0.03 µM.

B1: human SARM1 lacking the mitochondrial localisation signal (residues 28-724) (enzyme, UniProt Q6SZW1-1 28-724, looked up)
chain: LAVPGPDGGGGTGPWWAAGGRGPREVSPGAGTEVQDALERALPELQQALSALKQAGGARAVGAGLAEVFQLVEEAWLLPAVGREVAQGLCDAIRLDGGLDLLLRLLQAPELETRVQAARLLEQILVAENRDRVARIGLGVILNLAKEREPVELARSVAGILEHMFKHSEETCQRLVAAGGLDAVLYWCRRTDPALLRHCALALGNCALHGGQAVQRRMVEKRAAEWLFPLAFSKEDELLRLHACLAVAVLATNKEVEREVERSGTLALVEPLVASLDPGRFARCLVDASDTSQGRGPDDLQRLVPLLDSNRLEAQCIGAFYLCAEAAIKSLQGKTKVFSDIGAIQSLKRLVSYSTNGTKSALAKRALRLLGEEVPRPILPSVPSWKEAEVQTWLQQIGFSKYCESFREQQVDGDLLLRLTEEELQTDLGMKSGITRKRFFRELTELKTFANYSTCDRSNLADWLGSLDPRFRQYTYGLVSCGLDRSLLHRVSEQQLLEDCGIHLGVHRARILTAAREMLHSPLPCTGGKPSGDTPDVFISYRRNSGSQLASLLKVHLQLHGFSVFIDVEKLEAGKFEDKLIQSVMGARNFVLVLSPGALDKCMQDHDCKDWVHKEIVTALSCGKNIVPIIDGFEWPEPQVLPEDMQAVLTFNGIKWSHEYQEATIEKIIRFLQGRSSRDSSAGSDTSLEGAAPMGPT
For the molecule B1, in data set [3], the “stoichiometry N” value was 8.
